Converted amounts (≈) assume the structure as drawn.
How the values were obtained:
[1] = test system: Staphylococcus aureus; experiment: Antibacterial activity against Methicillin-sensitive Staphylococcus aureus; format: functional
[2] = test system: Escherichia coli; experiment: Antibacterial activity against Escherichia coli; format: functional
[3] = test system: Bacillus subtilis; experiment: Antibacterial activity against Bacillus subtilis; format: functional
[4] = test system: Staphylococcus aureus; experiment: Antibacterial activity against Methicillin-resistant Staphylococcus aureus; format: functional
[5] = test system: Pseudomonas aeruginosa; experiment: Antibacterial activity against Pseudomonas aeruginosa; format: functional
[6] = test system: Bacillus pumilus; experiment: Antibacterial activity against Bacillus pumilus; format: functional
[7] = test system: Pseudomonas aeruginosa; experiment: Antibacterial activity against Pseudomonas aeruginosa ATCC 27853 assessed as bacterial growth inhibition by agar diffusion assay; format: functional
[8] = test system: Pseudomonas aeruginosa; experiment: Antibiofilm activity against Pseudomonas aeruginosa PA14 assessed as reduction in biofilm biomass production at 18 ug/ml relative to control; format: functional; parameters: scale not given: the % may be the effect or the level left; settings: dose 18 µg/ml
[9] = Inhibition of quorum sensing system in Pseudomonas aeruginosa PAO1
[10] = test system: Pseudomonas aeruginosa; experiment: Antivirulence activity against Pseudomonas aeruginosa PAO1 assessed as reduction in pyocyanin level at 10 uM relative to control; format: functional; parameters: scale not given: the % may be the effect or the level left
[11] = test system: Pseudomonas aeruginosa; experiment: Antibacterial activity against Pseudomonas aeruginosa PAO1 assessed as reduction in bacterial growth by broth microdilution method; format: functional, organism-based
[12] = target: T1, Transcriptional activator protein LasR (Pseudomonas aeruginosa (strain ATCC 15692 / PAO1 / 1C / PRS 101 / LMG12228)) (UniProt P25084); experiment: Inhibition of LasR-mediated quorum sensing system in Pseudomonas aeruginosa PAO1 at 128 ug/ml relative to control; settings: dose 128.0 µg/ml
T1 sequence (whole entry): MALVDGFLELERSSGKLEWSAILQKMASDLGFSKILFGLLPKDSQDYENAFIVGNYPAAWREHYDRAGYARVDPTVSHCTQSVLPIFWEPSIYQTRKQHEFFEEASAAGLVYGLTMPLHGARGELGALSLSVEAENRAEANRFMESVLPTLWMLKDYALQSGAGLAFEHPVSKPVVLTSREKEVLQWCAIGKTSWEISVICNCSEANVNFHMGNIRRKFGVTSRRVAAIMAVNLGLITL

[13] = test system: Pseudomonas aeruginosa; experiment: Antibacterial activity against Pseudomonas aeruginosa PAO1-L; format: functional, organism-based
[14] = Inhibition of quorum sensing system in Pseudomonas aeruginosa PAO1 expressing lasB-gfp
[15] = test system: Pseudomonas aeruginosa; experiment: Antibacterial activity against Pseudomonas aeruginosa ATCC 15442 assessed as reduction in bacterial cell growth incubated for 24 hrs by two fold serial microdilution method; format: functional
[16] = test system: Pseudomonas aeruginosa; experiment: Antivirulence activity in Pseudomonas aeruginosa PAO1 assessed as reduction in pyocyanin production at 10 uM incubated for 24 hrs by absorbance based analysis relative to control; format: functional; parameters: scale not given: the % may be the effect or the level left
[17] = test system: Pseudomonas aeruginosa; experiment: Antibiofilm activity against Pseudomonas aeruginosa PAO1 assessed as inhibition of biofilm formation at 100 uM relative to control; format: functional; parameters: scale not given: the % may be the effect or the level left

O=C(CCCCCOc1ccc([N+](=O)[O-])cc1)NNC(=O)Cn1c(=O)oc2ncccc21
MIC [1]: > 512 µg/mL | MIC [2]: > 512 µg/mL | MIC [3]: > 512 µg/mL | MIC [4]: > 512 µg/mL | MIC [5]: > 512 µg/mL | MIC [6]: > 512 µg/mL

COc1ccccc1C(=O)CSc1ccc2ccccc2n1
MIC [7]: > 128 µg/mL

COc1cc(/C=C/c2cn(Cc3ccccc3)nn2)c(C(=O)O)c(O)c1CC=C(C)C
Activity [8]: 51.38%

O=C(CSc1nc2ccccc2s1)c1ccccc1
MIC [7]: > 128 µg/mL

COc1cccc(/C=C/C(=O)c2ccc(NCC(=O)N[C@@H]3CCOC3=O)cc2)c1
IC50 [9]: 56.5 µM

O=C(CCCCCOc1ccc(C(F)(F)F)cc1)NNC(=O)Cn1c(=O)oc2ncccc21
MIC [1]: > 512 µg/mL | MIC [2]: > 512 µg/mL | MIC [3]: > 512 µg/mL | MIC [4]: > 512 µg/mL | MIC [5]: > 512 µg/mL | Activity [10]: 53.1% | MIC [6]: > 512 µg/mL

O=C(CN[C@H]1CCOC1=O)Nc1ccc(C/C=C/c2ccccc2)cc1
MIC [11]: 5 µM (≈ 1.75 µg/mL)

COc1ccc(OCCCCCC(=O)NN2C(=O)CN(c3ccccc3O)C2=O)cc1
MIC [1]: > 512 µg/mL | MIC [2]: > 512 µg/mL | MIC [3]: > 512 µg/mL | MIC [5]: > 512 µg/mL | Activity [10]: 61% | MIC [6]: > 512 µg/mL

O=C(CN1CCOCC1)Oc1cccc([N+](=O)[O-])c1
inhibition [12]: 61.6%

N#CCc1ccc(OCC(O)Cn2cnc3ccc(Cl)cc3c2=O)c(F)c1 (stereo not given)
IC50 [13]: 2.2 µM

N#CCc1ccc(OCC(F)Cn2cnc3ccc(Cl)cc3c2=O)cc1 (stereo not given)
IC50 [13]: 4.3 µM

O=C(CN1CCSCC1)Oc1cccc([N+](=O)[O-])c1
inhibition [12]: 90.2%

N#CCc1ccc(OCC(N)Cn2cnc3ccc(Cl)cc3c2=O)cc1 (stereo not given)
IC50 [13]: 4.3 µM | IC50 [14]: 2.4 µM

O=C(CNc1ccc(C(=O)/C=C/c2ccc(Cl)c(Cl)c2)cc1)N[C@@H]1CCOC1=O
IC50 [9]: 46.8 µM

O=C(CSc1ccc2ccccc2n1)c1ccccc1
MIC [7]: > 128 µg/mL

CCCCCCCCNc1ccnc2cc(Cl)ccc12
MIC [15]: > 2 µM | Activity [16]: 80%

COc1cc(/C=C/c2cncs2)c(C(=O)O)c(O)c1CC=C(C)C
Activity [8]: 21.06%

O=C(CNc1ccc(C(=O)/C=C/c2ccc(Br)cc2F)cc1)N[C@@H]1CCOC1=O
IC50 [9]: 26.5 µM

Clc1ccc2c(NCCCCCCCCNCc3csc4ccccc34)ccnc2c1
MIC [15]: > 2 µM | Activity [16]: 97%

Clc1ccc2c(NCCCCCCCCNCc3ncc[nH]3)ccnc2c1
MIC [15]: > 2 µM | Activity [16]: 97%

N#CCc1ccc(OCC(O)Cn2cnc3ccc(Cl)cc3c2=O)cc1F (stereo not given)
IC50 [13]: 6.4 µM

FC(F)(F)c1ccc(CNCCCCCCCCNc2ccnc3cc(Cl)ccc23)cc1
MIC [15]: > 2 µM | Activity [16]: 97%

CC(C)(C)c1cccc(OC(=O)CN2CCOCC2)c1
inhibition [12]: 50.2%

Clc1ccc2c(NCCCCCCCCNCc3cc4ccccc4s3)ccnc2c1
MIC [15]: > 2 µM | Activity [16]: 97%

O=C(CCCCCOc1cccc(C(F)(F)F)c1)NN1C(=O)CN(c2ccccc2O)C1=O
MIC [1]: > 512 µg/mL | MIC [2]: > 512 µg/mL | MIC [3]: > 512 µg/mL | Activity [10]: 38.62% | MIC [6]: > 512 µg/mL

O=C(CSc1nc2ccccc2s1)c1ccc(Cl)c(Cl)c1
MIC [7]: > 128 µg/mL

O=c1cc(-c2ccc(O)c(O)c2)oc2c([C@H]3C[C@@H](O)[C@H](O)[C@@H](CO)O3)c(O)cc(O)c12
Activity [17]: 18%

COc1cc(/C=C/c2ccc(S(F)(F)(F)(F)F)cc2)c(C(=O)O)c(O)c1CC=C(C)C
Activity [8]: 50%

COc1cc(/C=C/c2ccc(C#N)cc2F)c(C(=O)O)c(O)c1CC=C(C)C
Activity [8]: 19.43%

CN1CCN(CC(=O)Oc2cccc([N+](=O)[O-])c2)CC1
inhibition [12]: 78.8%

COc1ccc(C(=O)CSc2ccc3ccccc3n2)c(OC)c1
MIC [7]: > 128 µg/mL

COc1cc(C(=O)CSc2ccc3ccccc3n2)ccc1O
MIC [7]: > 128 µg/mL

O=C(CNc1ccc(C(=O)/C=C/c2ccccc2)cc1)N[C@@H]1CCOC1=O
IC50 [9]: 62.5 µM

COc1cc(/C=C/c2cccc3cccnc23)c(C(=O)O)c(O)c1CC=C(C)C
Activity [8]: 35.61%

Reference: ChEMBL document CHEMBL6153025, “Multidrug-resistant bacteria quorum-sensing inhibitors: A particular focus on Pseudomonasaeruginosa” (Eur J Med Chem, 2025)
